Laboratory results as given in ChEMBL document CHEMBL1687754, “Chip calorimetry for fast and reliable evaluation of bactericidal and bacteriostatic treatments of biofilms” (2010).
≈ marks a conversion by molar mass, not a printed value. Calls of active or inactive are those of the source. The rule behind the calls is not given here.

Assays:
Pseudomonas aeruginosa = experiment: Antibacterial activity against Pseudomonas aeruginosa; format: functional
Escherichia coli = experiment: Antibacterial activity against Escherichia coli; format: functional
Klebsiella pneumoniae = experiment: Antibacterial activity against Klebsiella pneumoniae; format: functional
Pseudomonas putida [1] = experiment: Effect on Pseudomonas putida PAW340 biofilms assessed as heat production at 250 ug/ml by Chip calorimetry; format: functional
Staphylococcus aureus = experiment: Antibacterial activity against Staphylococcus aureus; format: functional
Pseudomonas putida [2] = experiment: Effect on Pseudomonas putida PAW340 biofilms assessed as heat production at 3 ug/ml by Chip calorimetry; format: functional
Pseudomonas putida [3] = experiment: Effect on Pseudomonas putida PAW340 biofilms assessed as heat production at 70 ug/ml by Chip calorimetry; format: functional
Pseudomonas putida [4] = experiment: Inactivation of Pseudomonas putida PAW340 biofilms assessed as decrease in ATP content at 0.5 mM by Chip calorimetry; format: functional, organism-based
Pseudomonas putida [5] = experiment: Inactivation of Pseudomonas putida PAW340 biofilms assessed as decrease in heat production at 0.5 mM within 1 hr by Chip calorimetry; format: functional; design: scale not given: the % may be the effect or the level left
Pseudomonas putida [6] = experiment: Inactivation of Pseudomonas putida PAW340 biofilms assessed as decrease in heat production at 0.5 mM by Chip calorimetry; format: functional, organism-based
Neisseria gonorrhoeae = experiment: Antibacterial activity against Neisseria gonorrhoeae; format: functional
Pseudomonas putida [7] = experiment: Inactivation of Pseudomonas putida PAW340 biofilms assessed as decrease in heat production at 3 to 30 ug/ml by Chip calorimetry; format: functional, organism-based; conditions: TDE = time-dependent effect
Pseudomonas putida [8] = experiment: Inactivation of Pseudomonas putida PAW340 biofilms assessed as decrease in heat production by Chip calorimetry; format: functional, organism-based
Pseudomonas putida [9] = experiment: Antibacterial activity against Pseudomonas putida PAW340 assessed as decrease in bacterial count at 20 to 150 ug/ml; format: functional, organism-based

**Q.** With CN(C)[C@@H]1C(O)=C(C(N)=O)C(=O)[C@@]2(O)C(O)=C3C(=O)c4c(O)cccc4[C@@](C)(O)[C@H]3C[C@@H]12 [TETRACYCLINE] as the compound, how does the MIC (Pseudomonas aeruginosa) read?
**A.** Its MIC is 6.25 µg/mL (≈ 14.1 µM).

**Q.** And the MIC (Escherichia coli)?
**A.** The MIC was 0.07 µg/mL (≈ 0.158 µM).

**Q.** What about the MIC (Klebsiella pneumoniae) of the same compound?
**A.** The MIC was 2.5 µg/mL (≈ 5.63 µM).

**Q.** And the Activity (Pseudomonas putida [1])?
**A.** The Activity was 100%.

**Q.** What about the MIC (Staphylococcus aureus) of the same compound?
**A.** Its MIC is 0.15 µg/mL (≈ 0.338 µM).

**Q.** And the Activity (Pseudomonas putida [2])?
**A.** The Activity was 100%.

**Q.** And the Activity (Pseudomonas putida [3])?
**A.** The Activity was 118%.

**Q.** O=[N+]([O-])c1ccc(O)c([N+](=O)[O-])c1 [2,4-DINITROPHENOL] was tested. Which Activity (Pseudomonas putida [4]) did it give?
**A.** Its Activity is “Active”.

**Q.** What about the Activity (Pseudomonas putida [5]) of the same compound?
**A.** Its Activity is 90%.

**Q.** And the Activity (Pseudomonas putida [6])?
**A.** The Activity was “Active”.

**Q.** Which results are given for NC[C@H]1O[C@H](O[C@H]2[C@H](O)[C@@H](O[C@H]3O[C@H](CO)[C@@H](O)[C@H](N)[C@H]3O)[C@H](N)C[C@@H]2N)[C@H](O)[C@@H](O)[C@@H]1O [KANAMYCIN]?
**A.** MIC (Neisseria gonorrhoeae): 2 µg/mL (≈ 4.13 µM); Activity (Pseudomonas putida [7]): tde

**Q.** Which Activity (Pseudomonas putida [8]) does the source give for O=C(O)c1cn(C2CC2)c2cc(N3CCNCC3)c(F)cc2c1=O here?
**A.** The Activity was “Dose-dependent effect”.

**Q.** What about the Activity (Pseudomonas putida [9]) of the same compound?
**A.** Its Activity is “Active”.
